Experimental data taken from PubChem BioAssay (NCI).
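Interpolation was linear, between the two tested concentrations surrounding the appropriate level; five concentrations were tested over 48 hours in 96-well plates. TGI marks complete inhibition of growth.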

What was measured:
Assay in all cases: DTP human tumour cell line panel, 48 h
LOX IMVI melanoma = tested on: LOX IMVI melanoma
SN12C renal = tested on: SN12C renal
DMS 114 small cell lung = tested on: DMS 114 small cell lung
DMS 273 small cell lung = tested on: DMS 273 small cell lung
MALME-3M melanoma = tested on: MALME-3M melanoma
M14 melanoma = tested on: M14 melanoma
OVCAR-8 ovarian = tested on: OVCAR-8 ovarian
XF 498 CNS = tested on: XF 498 CNS
COLO 205 colon = tested on: COLO 205 colon
CCRF-CEM leukemia = tested on: CCRF-CEM leukemia
ACHN renal = tested on: ACHN renal
SR leukemia = tested on: SR leukemia
OVCAR-4 ovarian = tested on: OVCAR-4 ovarian
RPMI-8226 leukemia = tested on: RPMI-8226 leukemia
SK-MEL-2 melanoma = tested on: SK-MEL-2 melanoma
HOP-62 NSCLC = tested on: HOP-62 NSCLC
U251 CNS = tested on: U251 CNS
MOLT-4 leukemia = tested on: MOLT-4 leukemia
786-0 renal = tested on: 786-0 renal
UACC-62 melanoma = tested on: UACC-62 melanoma
SK-OV-3 ovarian = tested on: SK-OV-3 ovarian
HCT-15 colon = tested on: HCT-15 colon
CAKI-1 renal = tested on: CAKI-1 renal
K-562 leukemia = tested on: K-562 leukemia
A549 NSCLC = tested on: A549 NSCLC
EKVX NSCLC = tested on: EKVX NSCLC
DLD-1 colon = tested on: DLD-1 colon
HCC-2998 colon = tested on: HCC-2998 colon
LXFL 529 NSCLC = tested on: LXFL 529 NSCLC
IGROV1 ovarian = tested on: IGROV1 ovarian
KM20L2 colon = tested on: KM20L2 colon
TK-10 renal = tested on: TK-10 renal
SW-620 colon = tested on: SW-620 colon
HL-60(TB) leukemia = tested on: HL-60(TB) leukemia
SK-MEL-5 melanoma = tested on: SK-MEL-5 melanoma
OVCAR-5 ovarian = tested on: OVCAR-5 ovarian
MDA-MB-231 breast = tested on: MDA-MB-231 breast
MDA-N = tested on: MDA-N
BT-549 breast = tested on: BT-549 breast
SF-268 CNS = tested on: SF-268 CNS
SF-539 CNS = tested on: SF-539 CNS
HOP-92 NSCLC = tested on: HOP-92 NSCLC
NCI-H522 lung = tested on: NCI-H522 lung
KM12 colon = tested on: KM12 colon
RXF 393 renal = tested on: RXF 393 renal
NCI-H226 lung = tested on: NCI-H226 lung
NCI-H460 lung = tested on: NCI-H460 lung
DU-145 prostate = tested on: DU-145 prostate
NCI/ADR-RES ovarian = tested on: NCI/ADR-RES ovarian
SF-295 CNS = tested on: SF-295 CNS
UO-31 renal = tested on: UO-31 renal
MDA-MB-435 = tested on: MDA-MB-435
SNB-75 CNS = tested on: SNB-75 CNS
PC-3 prostate = tested on: PC-3 prostate
SNB-19 CNS = tested on: SNB-19 CNS
MCF7 breast = tested on: MCF7 breast
T-47D breast = tested on: T-47D breast
HS 578T breast = tested on: HS 578T breast
HT29 colon = tested on: HT29 colon
A498 renal = tested on: A498 renal
HCT-116 colon = tested on: HCT-116 colon
OVCAR-3 ovarian = tested on: OVCAR-3 ovarian
SK-MEL-28 melanoma = tested on: SK-MEL-28 melanoma
UACC-257 melanoma = tested on: UACC-257 melanoma
NCI-H23 lung = tested on: NCI-H23 lung

Measured: TGI

C=C(Cl)Cc1c(O)c2c(c(O)c1CC(=C)Cl)C(=O)c1ccccc1C2=O
not listed: MDA-MB-231 breast | MDA-N | BT-549 breast | SF-268 CNS | SF-539 CNS | HOP-92 NSCLC | NCI-H522 lung | KM12 colon | RXF 393 renal | NCI-H226 lung | NCI-H460 lung | DU-145 prostate | NCI/ADR-RES ovarian | SF-295 CNS | UO-31 renal | MDA-MB-435 | SNB-75 CNS | PC-3 prostate | SNB-19 CNS | MCF7 breast | T-47D breast | HS 578T breast | HT29 colon | A498 renal | HCT-116 colon | OVCAR-3 ovarian | SK-MEL-28 melanoma | UACC-257 melanoma | NCI-H23 lung
> 100 µM: all other assays above

C=C(C)C12CC3CC/C(=N/O)C(C1)C3(N1CCOCC1)C/C2=N/O (stereo not given)
not listed: DMS 114 small cell lung | DMS 273 small cell lung | XF 498 CNS | DLD-1 colon | LXFL 529 NSCLC | KM20L2 colon
> 100 µM: all other assays above
